# Laboratory results published in patent US20090042964A1, “AMINO-5-[SUBSTITUTED-4-(DIFLUOROMETHOXY)PHENYL]-5-PHENYLIMIDAZOLONE COMPOUNDS AS BETA-SECRETASE INHIBITORS” (Wyeth, priority 2007, published 2009).
# Target: human BACE1 (Homo sapiens, UniProt P56817)
# Assay: Fluorescent kinetic assay, evaluation of BACE1 binding affinity of test compounds
# Type: biochemical
# Conditions: 10 nM human BACE1, 25 μM substrate WABC-6, pH 4.5, room temperature; read-out: BACE1 IC50
# Procedure: Concentration is determined by absorbance at 354 nm using an extinction coefficient of 18172 M^-1 cm^-1, the concentration of stock substrate is corrected, and the substrate stock stored in small aliquots in -80° C. […] Determination of Stock Enzyme Concentration: the stock concentration of each enzyme is determined by absorbance at 280 nm using an of 64150 M^-1 cm^-1 for hBACE1 and MuBACE1, 62870 M^-1 cm^-1 for hBACE2 in 6 M Guanidinium Hydrochloride (from Research Organics, Cat. # 5134G-2), pH 6. […] Biochem. 182, 319-326). Dilution and mixing steps: total reaction volume: 100 μL 2× inhibitor dilutions in buffer A (66.7 mM Na-Acetate, pH 4.5, 0.0667% CHAPS) were prepared, 4× enzyme dilution in buffer A (66.7 mM Na-Acetate, pH 4.5, 0.0667% CHAPS) were prepared, 100 μM substrate dilution in 1×PBS was prepared, and 50 μL 2× Inhibitor, 25 μL 100 μM substrate are added to each well of 96-well plate (from DYNEX Technologies, VWR #: 11311-046), immediately followed by 25 μL 4× enzyme (added to the inhibitor and substrate mix), and the fluorescence readings are initiated.
# Sequence of human BACE1 (P56817 46-501): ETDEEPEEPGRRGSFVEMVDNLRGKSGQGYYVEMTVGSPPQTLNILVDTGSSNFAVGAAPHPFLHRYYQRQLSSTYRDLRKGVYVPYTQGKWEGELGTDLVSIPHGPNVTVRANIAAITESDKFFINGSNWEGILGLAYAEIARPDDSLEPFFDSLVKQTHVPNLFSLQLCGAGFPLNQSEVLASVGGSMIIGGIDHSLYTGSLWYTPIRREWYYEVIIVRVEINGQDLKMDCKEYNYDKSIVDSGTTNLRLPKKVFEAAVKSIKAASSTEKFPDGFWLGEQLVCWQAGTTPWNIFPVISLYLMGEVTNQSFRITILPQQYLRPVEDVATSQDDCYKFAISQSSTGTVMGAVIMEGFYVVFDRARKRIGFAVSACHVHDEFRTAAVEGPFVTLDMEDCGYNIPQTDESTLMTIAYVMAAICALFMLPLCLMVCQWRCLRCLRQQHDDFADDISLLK
row,Compound,IC50
1,"2-Amino-5-[3-chloro-4-(difluoromethoxy)phenyl]-3-methyl-5-phenyl-3,5-dihydro-4H-imidazol-4-one [Example 16]",110 to 1000 nM
2,"2-Amino-5-[4-(difluoromethoxy)-3-(fluoromethyl)phenyl]-3-methyl-5-phenyl-3,5-dihydro-4H-imidazol-4-one [Example 14]",110 to 1000 nM
3,"CCCC#Cc1cc([C@]2(c3ccc(OC(F)F)c(C)c3)N=C(N)N(C)C2=O)ccc1F (single isomer, unassigned) [Example 73]",110 to 1000 nM
4,"CN1C(=O)[C@@](c2ccccc2)(c2ccc(OC(F)F)c(CCF)c2)N=C1N (single isomer, unassigned) [Example 76]",> 1000 nM
5,"CCCc1cc([C@]2(c3ccccc3)N=C(N)N(C)C2=O)ccc1OC(F)F (single isomer, unassigned) [Example 80]",> 1000 nM
6,"CCC#Cc1cc([C@]2(c3ccc(OC(F)F)c(C)c3)N=C(N)N(C)C2=O)ccc1F (single isomer, unassigned) [Example 84]",110 to 1000 nM
7,"CN1C(=O)[C@@](c2ccc(F)c(OCCCF)c2)(c2ccc(OC(F)F)c(C3CC3)c2)N=C1N (single isomer, unassigned) [Example 87]",> 1000 nM
8,"CN1C(=O)[C@@](c2ccc(F)c(C#CC3CC3)c2)(c2ccc(OC(F)F)c(CCF)c2)N=C1N (single isomer, unassigned) [Example 94]",110 to 1000 nM
9,"CN1C(=O)[C@@](c2cccc(Br)c2)(c2ccc(OC(F)F)c(C3CC3)c2)N=C1N (single isomer, unassigned) [Example 166]",> 1000 nM
10,"CC#Cc1cccc([C@]2(c3ccc(OC(F)F)c(C4CC4)c3)N=C(N)N(C)C2=O)c1 (single isomer, unassigned) [Example 170]",> 1000 nM
11,"CC(C)C#Cc1cccc([C@]2(c3ccc(OC(F)F)c(C4CC4)c3)N=C(N)N(C)C2=O)c1 (single isomer, unassigned) [Example 175]",> 1000 nM
12,"CN1C(=O)[C@](c2cccc(C#CC3CC3)c2)(c2ccc(OC(F)F)c(C3CC3)c2)N=C1N (single isomer, unassigned) [Example 177]",< 100 nM
13,"CN1C(=O)[C@@](c2cccc(C#CC3CC3)c2)(c2ccc(OC(F)F)c(C3CC3)c2)N=C1N (single isomer, unassigned) [Example 178]",110 to 1000 nM
14,"COCC#Cc1cccc([C@@]2(c3ccc(OC(F)F)c(C4CC4)c3)N=C(N)N(C)C2=O)c1 (single isomer, unassigned) [Example 181]",< 100 nM
15,"COCC#Cc1cccc([C@]2(c3ccc(OC(F)F)c(C4CC4)c3)N=C(N)N(C)C2=O)c1 (single isomer, unassigned) [Example 182]",110 to 1000 nM

# Results, then the compound that gave them:
row,IC50,Compound
1,< 100 nM,"CN1C(=O)[C@](c2ccccc2)(c2ccc(OC(F)F)c(CCF)c2)N=C1N (single isomer, unassigned) [Example 75]"
2,< 100 nM,"CCCc1cc([C@]2(c3ccccc3)N=C(N)N(C)C2=O)ccc1OC(F)F (single isomer, unassigned) [Example 79]"
3,< 100 nM,"CCC#Cc1cc([C@@]2(c3ccc(OC(F)F)c(C)c3)N=C(N)N(C)C2=O)ccc1F (single isomer, unassigned) [Example 83]"
4,< 100 nM,"CN1C(=O)[C@](c2ccc(F)c(OCCCF)c2)(c2ccc(OC(F)F)c(C3CC3)c2)N=C1N (single isomer, unassigned) [Example 86]"
5,< 100 nM,"CN1C(=O)[C@](c2ccc(F)c(C#CC3CC3)c2)(c2ccc(OC(F)F)c(CCF)c2)N=C1N (single isomer, unassigned) [Example 93]"
6,< 100 nM,"CN1C(=O)[C@](c2cccc(Br)c2)(c2ccc(OC(F)F)c(C3CC3)c2)N=C1N (single isomer, unassigned) [Example 165]"
7,< 100 nM,"CC#Cc1cccc([C@@]2(c3ccc(OC(F)F)c(C4CC4)c3)N=C(N)N(C)C2=O)c1 (single isomer, unassigned) [Example 169]"
8,< 100 nM,"CC(C)C#Cc1cccc([C@@]2(c3ccc(OC(F)F)c(C4CC4)c3)N=C(N)N(C)C2=O)c1 (single isomer, unassigned) [Example 174]"
